Measured values reported in patent publication US5693628A, “11-benzaldoxime-estra-diene derivatives, methods for their production and pharmaceuticals containing these compounds” (priority 1994, dated 1997).

Assays:
[1] = target: T1, progesterone receptor (Oryctolagus cuniculus, UniProt P06186); experiment: relative molar bonding affinity to progesterone receptor (competitive bonding); format: binding; details: progesterone = 100%; uterine cytosol of estradiol-primed rabbit; 3H-ORG 2058, 5 nM; 18 h, 0-4° C.
T1 construct: uterine cytosol of the estradiol-primed rabbit; from tissue; host or cells: uterus (cytosol) of estradiol-primed rabbit
T1 sequence (P06186 1-930): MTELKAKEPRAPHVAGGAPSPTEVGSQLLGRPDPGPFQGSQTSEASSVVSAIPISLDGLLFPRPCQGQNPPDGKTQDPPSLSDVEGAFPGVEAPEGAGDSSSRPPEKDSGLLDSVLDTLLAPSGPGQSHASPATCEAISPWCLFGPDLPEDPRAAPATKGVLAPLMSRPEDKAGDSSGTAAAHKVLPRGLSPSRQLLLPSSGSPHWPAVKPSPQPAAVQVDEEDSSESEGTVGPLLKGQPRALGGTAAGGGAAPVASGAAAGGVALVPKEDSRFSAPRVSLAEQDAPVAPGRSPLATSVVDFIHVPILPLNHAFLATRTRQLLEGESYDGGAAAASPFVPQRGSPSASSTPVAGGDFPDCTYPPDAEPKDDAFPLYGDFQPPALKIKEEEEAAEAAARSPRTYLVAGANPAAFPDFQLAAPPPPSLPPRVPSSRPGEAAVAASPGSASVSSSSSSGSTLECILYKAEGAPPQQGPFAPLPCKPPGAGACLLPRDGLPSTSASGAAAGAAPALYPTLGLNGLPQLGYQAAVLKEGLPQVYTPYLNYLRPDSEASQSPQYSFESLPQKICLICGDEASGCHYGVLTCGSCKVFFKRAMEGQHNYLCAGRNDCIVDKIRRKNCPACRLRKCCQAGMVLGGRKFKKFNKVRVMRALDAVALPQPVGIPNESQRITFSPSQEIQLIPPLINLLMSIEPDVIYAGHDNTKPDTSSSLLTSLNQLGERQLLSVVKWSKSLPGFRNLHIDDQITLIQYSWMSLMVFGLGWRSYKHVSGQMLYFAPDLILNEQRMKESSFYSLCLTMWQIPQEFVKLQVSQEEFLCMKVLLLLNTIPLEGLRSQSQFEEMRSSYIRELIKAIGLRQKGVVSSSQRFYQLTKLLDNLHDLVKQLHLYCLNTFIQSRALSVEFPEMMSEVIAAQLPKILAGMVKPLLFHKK
Experimental: (§1) Measurement of bonding affinity for receptors
(§2) Receptor bonding affinity was determined by competitive bonding of a specifically binding ^3 H labelled hormone (tracer) and the compound to be tested to receptors in the cytosol from animal target organs. It was tried to obtain receptor saturation and a balanced reaction. The following incubation conditions were selected:
Progesterone receptor: uterine cytosol of the estradiol-primed rabbit, kept at -30° C. in TED buffer (20 mM Tris/HCl, pH 7.4; 1 mM ethylene diamine tetraacetate, 2 mM dithio threitol) with 250 mM of saccharose.
(§3) After an incubation period of 18 hours at 0°-4° C., bonded and free steroid was separated by mixing in active carbon/dextrane (1%/0.1%), centrifuging off and measuring the bonded ^3 H activity in the supernatant.
The IC50 for the compound to be tested and for the reference substance were determined from measurements in series of concentrations.

[2] = target: T2, oestrogen receptor (Oryctolagus cuniculus, UniProt G1SML6); experiment: relative molar bonding affinity to oestrogen receptor (competitive bonding); format: binding; details: estradiol = 100%; uterine cytosol of immature rabbit; 3H-ethinyl estradiol, 3 nM; 18 h, 0-4° C.
T2 construct: uterine cytosol of the immature rabbit; from tissue; host or cells: uterus (cytosol) of immature rabbit
T2 sequence (G1SML6 1-598): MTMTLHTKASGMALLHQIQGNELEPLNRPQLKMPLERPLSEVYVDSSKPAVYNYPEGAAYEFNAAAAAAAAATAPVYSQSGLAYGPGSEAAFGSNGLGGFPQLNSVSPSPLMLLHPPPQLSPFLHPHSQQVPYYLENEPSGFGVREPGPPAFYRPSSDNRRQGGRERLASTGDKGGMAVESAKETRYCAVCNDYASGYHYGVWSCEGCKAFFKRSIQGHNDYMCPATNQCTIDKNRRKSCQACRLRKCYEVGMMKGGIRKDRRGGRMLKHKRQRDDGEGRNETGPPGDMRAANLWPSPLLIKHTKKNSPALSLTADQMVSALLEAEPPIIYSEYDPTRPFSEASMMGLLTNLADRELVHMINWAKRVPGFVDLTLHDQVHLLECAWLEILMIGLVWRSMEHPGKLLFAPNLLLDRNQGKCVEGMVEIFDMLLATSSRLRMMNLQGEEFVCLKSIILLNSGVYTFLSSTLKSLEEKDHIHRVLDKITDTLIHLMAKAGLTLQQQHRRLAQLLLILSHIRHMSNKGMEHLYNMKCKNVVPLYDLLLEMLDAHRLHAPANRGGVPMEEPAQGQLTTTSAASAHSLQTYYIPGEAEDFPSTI
Experimental: as §1, §2
Oestrogen receptor: uterine cytosol of the immature rabbit, kept at -30° C. in TED buffer with 250 mM of saccharose. Tracer: ^3 H-ethinyl estradiol, 3 nM; reference substance: 17β-estradiol.
as §3
The IC50 for the compound to be tested and for the reference substance were determined from measurements in series of concentrations. The quotient of both values (×100%) is the relative molar bonding affinity.

[3] = test system: H4-IIE rat hepatoma cell line (TAT induction); experiment: Antiglucocorticoid effect: inhibition of dexamethasone-induced TAT in rat hepatoma cells; format: cell-based; details: hepatomatous cells of rats; 10^-8 M dexamethasone
Excerpt: FIG. 3. is a graph showing the antiglucocorticoid effect of J 867 (Example 1) in comparison to RU 486. The graph depicts the inhibition of TAT induction in a rat hepatoma cell line (the H4-IIE cell line) which were induced by 10^-8 M dexamethasone. The graph indicates the log molar antagonist concentration in the x-axis versus the maximum TAT induction as a percentage in the y-axis. The results for dexamethasone is shown as dashed lines (- - -), the IC50 is shown in solid line (----), RU 486 is shown as open boxes (.quadrature.), and J 867 is shown with closed boxes (.box-solid.).
FIG. 3 compares the antiglucocorticoid effect of J 867 and RU 486 on hepatomatous cells of rats using the TAT model.
In hepatomatous cells of rats, dexamethasone stimulates the tyrosine amino transferase enzyme (TAT). This effect is inhibited by antiglucocorticoid activity.
Antiglucocorticoid effect of J867 in hepatomatous cells of rats using the TAT model
The cell cultures were treated in DMEM under essentially the same conditions as in Example 14. The cells were spread over 24 well plates for the experiments. Substance was added to the confluent hepatomatous cells in 0.2% (v/v) ethanol for 16 hours. After the cells were carefully harvested using a scraper and a cell extract obtained using ultrasonic waves, TAT was determined according to Diamondstone.

## COC[C@]1(OC)CC[C@H]2[C@@H]3CCC4=CC(=O)CCC4=C3[C@@H](c3ccc(C=NO)cc3)C[C@@]21C [Example 1, 11β-[4-(hydroximinomethyl)phenyl]-17β-methoxy-17α-methoxymethyl-estra-4,9-diene-3-on]
[1]
  relative molar bonding affinity (RBA) to progesterone receptor: 302%
[2]
  relative molar bonding affinity (RBA) to oestrogen rec.: < 0.1%
[3]
  antiglucocorticoid effect (TAT) compared with RU 486: clearly weaker antiglucocorticoid effect than RU 486
